Experimental data taken from US20140336138A1, “COMPOSITIONS AND METHODS FOR SCREENING AND TREATMENT OF STURGE-WEBER SYNDROME, KLIPPEL-TRENAUNAY-WEBER SYNDROME, AND PORT-WINE STAINS (PWSS)” (The Johns Hopkins University, priority 2013, published 2014).

How the values were obtained:
RGS2 = details: cited from earlier work
phosphorylated-ERK = experiment: Western analysis of phosphorylated-ERK in 293T cells transfected with GNAQ p.R183Q, normalized to tubulin; format: cell-based, human; details: 100 nM digoxin, 42 hours, p=0.0003
Method: 293T cells will be transiently transfected with wildtype, GNAQ, the p.Arg183Gln, or the p.Gln209Leu mutant constructs. Fugene6 (Promega) is used for the 293T transfections (3:1 ratio Fugene6:DNA). The cells are transfected at 60-75% confluency for about an hour.
Levels of phosphorylated-ERK (rabbit monoclonal Phospho-p44/42 MAPK (Erk1/2) Cell Signaling Technology) and phosphorylated-JNK are measured by western analysis and normalized to tubulin. RGS2 and/or RGS4 levels are measured by western analysis and normalized to tubulin. Protein samples are collected from three replicates per cell type and condition. Additionally, similar experiments are performed with the p.Gln209Leu GNAQ mutants as well.

[1] = test system: cells transfected with the R183Q mutation; experiment: Cell death / appearance of drug treated R183Q transfected cell cultures; format: cell-based, human; details: 100 nM digoxin
RGS4 = details: cited from earlier work

Row | SMILES | RGS2 protein levels (RGS2) | p-ERK increase (drug vs vehicle) (phosphorylated-ERK) | cell death in drug treated cell cultures ([1]; 18 hours) | cell death / growth in drug treated cells ([1]; 42 hours) | RGS4 protein levels (RGS4)
1 | C[C@H]1O[C@@H](O[C@H]2[C@@H](O)C[C@H](O[C@H]3[C@@H](O)C[C@H](O[C@H]4CC[C@@]5(C)[C@H](CC[C@@H]6[C@@H]5C[C@@H](O)[C@]5(C)[C@@H](C7=CC(=O)OC7)CC[C@]65O)C4)O[C@@H]3C)O[C@@H]2C)C[C@H](O)[C@@H]1O [digoxin] | increase | about 3.9 fold | increased cell death | increased cell death/less growth | not
2 | C[C@@H]1O[C@@H](O[C@H]2C[C@@H](O)[C@]3(CO)[C@H]4[C@H](O)C[C@]5(C)[C@@H](C6=CC(=O)OC6)CC[C@]5(O)[C@@H]4CC[C@]3(O)C2)[C@H](O)[C@H](O)[C@H]1O [ouabain] | increase | – | – | – | not
